Measurements reported in patent US11198673B2, “Therapeutic compounds and compositions” (eXIthera Pharmaceuticals, Inc., priority 2014, dated 2021).
≈ marks a conversion by molar mass, not a printed value.

How the values were obtained:
physchem = assay type: physicochemical; conditions: pH 7.4, aqueous buffer, kinetic from dmso stock
Method: The test compound was prepared at 200 μM in PBS from a 10 mM DMSO stock solution. The final DMSO concentration was 2%. The PBS buffer samples were mixed thoroughly followed by incubation at room temperature for 24 h. At the end of the incubation, the PBS buffer samples were centrifuged and supernatants analyzed by HPLC.

Trypsin = assay: Dose response assay for protease inhibitors: trypsin (FXIa fold selectivity); assay type: biochemical; conditions: fold selectivity for FXIa over trypsin
Method: (§1) • Assay buffer: 20 mM Hepes, pH 7.4; 150 mM NaCl; 0.02% Tween 20 • Compounds: 10 mM stocks in DMSO • Substrate: 20 mM Glp-Pro-Arg-AMC, 25 mg/2.3 mL H2O (store at +4° C.) [Factor XIa, thrombin, and trypsin] • 20 mM Pro-Phe-Arg-AMC (Bachem I-1295), 25 mg/2.2 mL H2O (store at +4° C.) [Factor Xa] • Enzyme: Factor XIa; 0.25 μM in 50% glycerol (20 μg/mL) • Trypsin; 0.2 μM in 50% glycerol (4.8 μg/mL) • Thrombin; 0.2 μM in 50% glycerol (7.34 μg/mL) • Factor Xa; 0.2 μM in 50% glycerol (9.2 μg/mL) • These stocks are aliquoted ([…]) and stored at −20° C. Methods: • 1. Dilute the substrate to 100 μM in assay buffer (30 μL/6 mL). The enzyme is diluted to 0.5 nM just prior to use (12 μL/6 mL for Factor XIa; 15 μL/6 mL for all of the rest.) • 2. Pipette 50 μL of substrate into each well of the 96 well (12×8) microtiter plate. (Column 1 is used as the 100% activity control and receives no compound, and Column 12 is the blank and receives no enzyme.) Add an additional 46 μL to column 2. • 3. Pipette 4 μL of each compound into the appropriate well in column 2 of the plate (unknowns assayed in triplicate, standard assayed in duplicate). The final compound concentration will be 1/50th of the stock. • 4. Serially two-fold dilute the compound by mixing the sample in column 2, removing 50 μL to the next well (column 3), mix and remove to column 4, etc. until column 11. After mixing column 11, remove 50 μL and discard. • 5. Pipette 50 μL of buffer into column 12. Initiate the reaction by adding 50 μL of enzyme solution to each well of columns 1-11 as rapidly as possible. • 6. Read the plate in a spectrophotometer (SpectraMax) at 30° C., wherein each well is measured every 60 s for 30 min. For Factor Xa assays, each well is measured every 1 min for a total of 60 min. • 7. For Factor XIa assays, the compounds are assayed, in duplicate, at 3 different starting concentrations, 20, 2, and 0.2 μM; 1:10, 1:100, and 1:1000 dil'n of 10 mM stock. All data sets are combined for graphing and data fitting. • 8. Data can be used both for estimation of IC50 and for estimation of Kon.

[1] = β-Lactam stability in rat plasma; assay type: in vitro ADME; conditions: normal rat plasma, room temperature; read-out: Rat Plasma Stability (T1/2; min)
Method: Normal rat plasma, stored at −80° C.
• 1. Place 6 μL of each compound into 0.5 mL microcentrifuge tubes or 96-well U-bottom, polypropylene microtiter plate • 2. Place 40 μL of acetonitrile (AcN) into 0.5 mL microcentrifuge tubes labeled 1-9 • 3. Add 114 μL of plasma to each compound • 4. Sample 10 μL of compound/plasma into AcN at 2, 10, 20, 30, 60, 90, 120, 240, and 480 min of incubation at room temperature • 5. Mix each time point after adding sample and place on ice. • 6. Centrifuge time points (12,000 rpm, 3 min), remove 15 μL of the supernatant and mix with 15 μL 0.1% TFA in a V-bottom microtiter plate. • 7. Place microtiter plate in autosampler of HPLC and analyze on Restek Pinnacle C18 column (2.1×100 mm). • 8. Generate extracted ion chromatogram for parent compound and parent compound+18 (H2O). Integrate extracted ion chromatograms (EIC) and plot % total peak area for parent and adduct versus time. Fit to a model of single phase exponential decay [Y=A0*exp(−k*x)+C]. T½ is equal to ln(2)/k.

Factor Xa = biological target: T1, Factor Xa (Homo sapiens, UniProt P00742); assay: Dose response assay for protease inhibitors: Factor Xa (FXIa fold selectivity); assay type: biochemical; conditions: fold selectivity for FXIa over Factor Xa
T1 construct: Factor Xa; 0.2 μM in 50% glycerol (9.2 μg/mL)
T1 sequence (P00742 235-488 limits assumed): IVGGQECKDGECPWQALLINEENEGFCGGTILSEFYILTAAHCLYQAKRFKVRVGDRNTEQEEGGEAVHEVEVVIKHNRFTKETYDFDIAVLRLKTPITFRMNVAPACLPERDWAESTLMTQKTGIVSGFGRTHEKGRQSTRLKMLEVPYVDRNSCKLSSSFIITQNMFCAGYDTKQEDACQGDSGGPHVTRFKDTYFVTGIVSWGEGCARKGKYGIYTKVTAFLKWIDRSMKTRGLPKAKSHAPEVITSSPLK
T1 sequence (P00742 41-179 partner limits assumed): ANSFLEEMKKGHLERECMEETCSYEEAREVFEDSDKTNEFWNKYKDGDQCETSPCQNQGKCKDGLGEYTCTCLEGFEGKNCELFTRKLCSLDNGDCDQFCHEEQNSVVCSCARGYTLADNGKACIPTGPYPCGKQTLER
Method: as §1

human Factor XIa = biological target: T2, human Factor XIa (Homo sapiens, UniProt P03951); assay: Factor XIa enzyme inhibition assay (IC50, purified enzyme); assay type: biochemical; conditions: purified enzyme 0.25 nM, substrate 50 μM; read-out: Potency hFXIa IC50
T2 construct: Enzyme: Factor XIa; 0.25 μM in 50% glycerol (20 μg/mL)
T2 sequence (P03951 388-625 limits assumed): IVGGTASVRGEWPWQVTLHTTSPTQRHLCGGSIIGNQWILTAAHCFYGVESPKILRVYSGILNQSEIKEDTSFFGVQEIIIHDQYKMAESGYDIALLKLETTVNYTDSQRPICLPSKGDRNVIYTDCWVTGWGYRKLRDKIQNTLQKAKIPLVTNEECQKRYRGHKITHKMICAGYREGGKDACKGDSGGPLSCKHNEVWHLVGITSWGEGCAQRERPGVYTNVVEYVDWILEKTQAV
T2 sequence (P03951 19-387 partner limits assumed): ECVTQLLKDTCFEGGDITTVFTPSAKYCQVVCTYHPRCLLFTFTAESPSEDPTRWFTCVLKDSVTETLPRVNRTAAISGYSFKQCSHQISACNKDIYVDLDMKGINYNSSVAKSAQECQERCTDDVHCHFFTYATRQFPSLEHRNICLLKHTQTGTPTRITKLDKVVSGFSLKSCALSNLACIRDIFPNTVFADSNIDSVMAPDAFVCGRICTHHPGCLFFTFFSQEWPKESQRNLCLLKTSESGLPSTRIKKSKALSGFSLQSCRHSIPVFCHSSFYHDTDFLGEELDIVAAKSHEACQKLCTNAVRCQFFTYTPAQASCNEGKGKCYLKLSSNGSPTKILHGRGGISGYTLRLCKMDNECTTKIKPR
Method in brief: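 Fluorogenic Glp-Pro-Arg-AMC cleavage, 50 μM substrate, 0.25 nM enzyme, in 20 mM Hepes pH 7.4, 150 mM NaCl, 0.02% Tween 20. Serial two-fold compound dilutions from starting concentrations of 20, 2 and 0.2 μM. Read every minute for 30 min at 30° C; IC50 from a four-parameter fit of dose-response.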

Thrombin = biological target: T3, Thrombin (Homo sapiens, UniProt P00734); assay: Dose response assay for protease inhibitors: thrombin (FXIa fold selectivity); assay type: biochemical; conditions: fold selectivity for FXIa over thrombin
T3 construct: Thrombin; 0.2 μM in 50% glycerol (7.34 μg/mL)
Method: as §1

Compound: COCCc1ccc(OCC(O)CNC(C)C)cc1 (centres unmarked) [metoprolol, reference compound]
- solubility at 24 h (physchem): 200 µM (≈ 53.5 µg/mL)

Compound: O=C(O)[C@@H]1[C@@H](Cc2ccncc2)C(=O)N1C(=O)NC(c1ccccc1)c1ccccc1 [Example 123]
- FXIa Fold Selectivity Trypsin (Trypsin): G (“G” indicates 1-500)
- half-life [1]: > 100 min
- FXIa Fold Selectivity FXa (Factor Xa): G (“G” indicates 1-500)
- IC50 (human Factor XIa): 100 to 1000 nM
- FXIa Fold Selectivity Thrombin (Thrombin): G (“G” indicates 1-500)

Compound: C[C@@H](NC(=O)N1C(=O)[C@H](Cc2ccnc(N)c2)[C@H]1C(=O)O)c1cccc(OC(F)(F)F)c1 [Example 49]
- FXIa Fold Selectivity Trypsin (Trypsin): G (“G” indicates 1-500)
- half-life [1]: > 100 min
- FXIa Fold Selectivity FXa (Factor Xa): H (“H” indicates 500-1000)
- IC50 (human Factor XIa): < 10 nM
- FXIa Fold Selectivity Thrombin (Thrombin): I (“I” indicates >1000)

Compound: C[C@@H](NC(=O)N1C(=O)[C@H](Cc2ccnc(N)c2)[C@H]1C(=O)O)c1cccnc1 [Example 40]
- FXIa Fold Selectivity Trypsin (Trypsin): I (“I” indicates >1000)
- half-life [1]: > 100 min
- FXIa Fold Selectivity FXa (Factor Xa): I (“I” indicates >1000)
- IC50 (human Factor XIa): 10 to 100 nM
- FXIa Fold Selectivity Thrombin (Thrombin): I (“I” indicates >1000)

Compound: CC(NC(=O)N1C(=O)[C@H](Cc2ccnc(N)c2)[C@H]1C(=O)O)c1cccc(F)c1 (some centres unmarked) [Example 42]
- FXIa Fold Selectivity Trypsin (Trypsin): H (“H” indicates 500-1000)
- half-life [1]: > 100 min
- FXIa Fold Selectivity FXa (Factor Xa): I (“I” indicates >1000)
- IC50 (human Factor XIa): < 10 nM
- FXIa Fold Selectivity Thrombin (Thrombin): I (“I” indicates >1000)

Compound: CCOC(=O)[C@@H]1[C@@H](Cc2ccnc(NC(=O)[C@H](C)N)c2)C(=O)N1C(=O)N[C@H](C)c1ccc2c(c1)OC(F)(F)O2 [Example 148]
- FXIa Fold Selectivity Trypsin (Trypsin): G (“G” indicates 1-500)
- half-life [1]: < 100 min
- FXIa Fold Selectivity FXa (Factor Xa): G (“G” indicates 1-500)
- IC50 (human Factor XIa): 100 to 1000 nM
- FXIa Fold Selectivity Thrombin (Thrombin): G (“G” indicates 1-500)

Compound: C[C@@H](NC(=O)N1C(=O)[C@H](Cc2ccnc(N)c2)[C@H]1C(=O)O)c1ccc(OC(F)(F)F)cc1 [Example 168]
- FXIa Fold Selectivity Trypsin (Trypsin): I (“I” indicates >1000)
- half-life [1]: > 100 min
- FXIa Fold Selectivity FXa (Factor Xa): I (“I” indicates >1000)
- IC50 (human Factor XIa): < 10 nM
- FXIa Fold Selectivity Thrombin (Thrombin): I (“I” indicates >1000)

Compound: CNC(=O)N1C(=O)[C@H](Cc2ccnc(N)c2)[C@H]1C(=O)O [Example 55]
- FXIa Fold Selectivity Trypsin (Trypsin): G (“G” indicates 1-500)
- half-life [1]: > 100 min
- FXIa Fold Selectivity FXa (Factor Xa): G (“G” indicates 1-500)
- IC50 (human Factor XIa): > 1000 nM
- FXIa Fold Selectivity Thrombin (Thrombin): G (“G” indicates 1-500)

Compound: NC(=O)[C@@H]1[C@@H](Cc2ccnc(N)c2)C(=O)N1C(=O)NC(c1ccccc1)c1ccccc1 [Example 22]
- FXIa Fold Selectivity Trypsin (Trypsin): I (“I” indicates >1000)
- half-life [1]: > 100 min
- FXIa Fold Selectivity FXa (Factor Xa): I (“I” indicates >1000)
- IC50 (human Factor XIa): < 10 nM
- FXIa Fold Selectivity Thrombin (Thrombin): H (“H” indicates 500-1000)

Compound: C[C@@H](NC(=O)N1C(=O)[C@H](Cc2ccnc(N)c2)[C@H]1C(N)=O)c1ccccc1 [Example 26]
- FXIa Fold Selectivity Trypsin (Trypsin): I (“I” indicates >1000)
- half-life [1]: < 100 min
- FXIa Fold Selectivity FXa (Factor Xa): H (“H” indicates 500-1000)
- IC50 (human Factor XIa): < 10 nM
- FXIa Fold Selectivity Thrombin (Thrombin): I (“I” indicates >1000)

Compound: CC(NC(=O)N1C(=O)[C@H](Cc2ccnc(N)c2)[C@H]1C(=O)O)c1ccc(OC(F)(F)F)cc1 (some centres unmarked) [Example 47]
- FXIa Fold Selectivity Trypsin (Trypsin): H (“H” indicates 500-1000)
- half-life [1]: > 100 min
- FXIa Fold Selectivity FXa (Factor Xa): I (“I” indicates >1000)
- IC50 (human Factor XIa): < 10 nM
- FXIa Fold Selectivity Thrombin (Thrombin): I (“I” indicates >1000)

Compound: Nc1cc(C[C@H]2C(=O)N(C(=O)N[C@@H](c3ccccc3)C(F)(F)F)[C@@H]2C(=O)O)ccn1 [Example 44]
- FXIa Fold Selectivity Trypsin (Trypsin): G (“G” indicates 1-500)
- half-life [1]: > 100 min
- FXIa Fold Selectivity FXa (Factor Xa): I (“I” indicates >1000)
- IC50 (human Factor XIa): < 10 nM
- FXIa Fold Selectivity Thrombin (Thrombin): I (“I” indicates >1000)

Compound: Nc1cc(C[C@H]2C(=O)N(C(=O)NCc3cccc4ccccc34)[C@@H]2C(=O)O)ccn1 [Example 43]
- FXIa Fold Selectivity Trypsin (Trypsin): G (“G” indicates 1-500)
- half-life [1]: > 100 min
- FXIa Fold Selectivity FXa (Factor Xa): G (“G” indicates 1-500)
- IC50 (human Factor XIa): 10 to 100 nM
- FXIa Fold Selectivity Thrombin (Thrombin): G (“G” indicates 1-500)

Compound: C[C@@H](NC(=O)N1C(=O)[C@H](Cc2ccnc(N)c2)[C@H]1C#N)c1ccccc1 [Example 34]
- FXIa Fold Selectivity Trypsin (Trypsin): G (“G” indicates 1-500)
- half-life [1]: < 100 min
- FXIa Fold Selectivity FXa (Factor Xa): I (“I” indicates >1000)
- IC50 (human Factor XIa): < 10 nM
- FXIa Fold Selectivity Thrombin (Thrombin): I (“I” indicates >1000)

Compound: CCOC(=O)[C@@H]1[C@@H](Cc2ccnc(NC(=O)OCOC(=O)C(C)C)c2)C(=O)N1C(=O)N[C@H](C)c1ccc2c(c1)OC(F)(F)O2 [Example 92]
- solubility at 4 h (physchem): 1 to 10 µM (≈ 0.621 to 6.21 µg/mL)
- FXIa Fold Selectivity Trypsin (Trypsin): I (“I” indicates >1000)
- half-life [1]: < 100 min
- FXIa Fold Selectivity FXa (Factor Xa): H (“H” indicates 500-1000)
- IC50 (human Factor XIa): 10 to 100 nM
- FXIa Fold Selectivity Thrombin (Thrombin): I (“I” indicates >1000)

Compound: CCCC(CCC)NC(=O)N1C(=O)[C@H](Cc2ccnc(N)c2)[C@H]1C(=O)O [Example 52]
- FXIa Fold Selectivity Trypsin (Trypsin): G (“G” indicates 1-500)
- half-life [1]: > 100 min
- FXIa Fold Selectivity FXa (Factor Xa): H (“H” indicates 500-1000)
- IC50 (human Factor XIa): 10 to 100 nM
- FXIa Fold Selectivity Thrombin (Thrombin): I (“I” indicates >1000)

Compound: CCC[C@@H](NC(=O)N1C(=O)[C@H](Cc2ccnc(N)c2)[C@H]1C(=O)O)c1ccc2c(c1)OC(F)(F)O2 [Example 89]
- FXIa Fold Selectivity Trypsin (Trypsin): G (“G” indicates 1-500)
- half-life [1]: > 100 min
- FXIa Fold Selectivity FXa (Factor Xa): G (“G” indicates 1-500)
- IC50 (human Factor XIa): < 10 nM
- FXIa Fold Selectivity Thrombin (Thrombin): I (“I” indicates >1000)

Compound: CCO[C@@H]1[C@@H](Cc2ccnc(N)c2)C(=O)N1C(=O)NC(c1ccccc1)c1ccccc1 [Example 33]
- FXIa Fold Selectivity Trypsin (Trypsin): G (“G” indicates 1-500)
- half-life [1]: > 100 min
- FXIa Fold Selectivity FXa (Factor Xa): F (“F” indicates <1)
- IC50 (human Factor XIa): > 1000 nM
- FXIa Fold Selectivity Thrombin (Thrombin): G (“G” indicates 1-500)

Compound: CCOC(=O)[C@@H]1[C@@H](Cc2ccnc(NC)c2)C(=O)N1C(=O)N[C@H](C)c1ccc2c(c1)OC(F)(F)O2 [Example 99]
- FXIa Fold Selectivity Trypsin (Trypsin): G (“G” indicates 1-500)
- half-life [1]: < 100 min
- FXIa Fold Selectivity FXa (Factor Xa): I (“I” indicates >1000)
- IC50 (human Factor XIa): < 10 nM
- FXIa Fold Selectivity Thrombin (Thrombin): I (“I” indicates >1000)
